Source: US20260226027A1, “DEUTERATED COMPOUNDS” (Neurocrine Biosciences, Inc., priority 2023, published 2026)

Legend:
beagle dog hepatocytes = test: Metabolite profile in cryopreserved beagle dog hepatocytes; format: in vitro ADME; conditions: 10 μM Compound 1, 120 min
Protocol: (§1) Metabolite profile and metabolite identification of Compound 1 were studied in cryopreserved SD-rat, beagle dog and human hepatocytes. The incubations were conducted using 10 μM initial concentrations of test substance and sampling at 0 min, 60 min, and 120 min. The samples were analysed using UPLC/Q-TOF-MS. Incubation material and procedures are provided Table 1. The samples were thawed at room temperature (RT), centrifuged (10 min at 13000×g (Heraeus Pico 17 centrifuge), and the supernatants were pipetted to glass vials to wait for analysis. Analysis was performed using liquid chromatography-mass spectrometry (LC-MS) according to the parameters described in Table 2. The samples were thawed at room temperature (RT), centrifuged (10 min at 13000×g (Heraeus Pico 17 centrifuge), and the supernatants were pipetted to glass vials to wait for analysis.

[1] = Metabolite identification in cross-subject human urine pool; format: in vivo; conditions: day 7, 0-24 h pool, multiple daily oral 15 mg Compound 1, n=8
Protocol: Human urine samples from the Compound 1-dosed subjects (15 mg; n=8) collected at day 7 between 0-4 h, 4 h-8 h, 8 h-12 h and 12 h-24 h after multiple daily oral administration were also pooled for analysis. Urine from placebo-dosed subjects (n=2) collected at day 7 over the same time periods was used as control for metabolite identification.
A composite urine sample (day 7; 0-24 h) was prepared for each human subject treated with Compound 1 (15 mg; n=8) or with placebo (n=2) by combining proportional amounts of the sample collected over each time period. Composite cross-subject urine samples for human subjects dosed with Compound 1 or placebo were then prepared by combining proportional amounts of pooled urine from each subject. All urine pools were mixed and centrifuged (2000 g; 4° C.; 10 min) prior to analysis.
Samples were analysed by LC-MS, utilising a Vion Q-TOF mass spectrometer (Waters), Acquity I-class LC pumps, column heater, sample manager and photodiode array detector (Waters). The mass spectrometer was set to operate in positive ion mode and a number of experiments were performed to enable the acquisition of full scan and product ion data. […] Metabolite abundance was calculated as a percentage of total drug-related material in a given sample; the MS peak areas were collated and summed, and the abundance of each metabolite calculated as a percentage of the total in each sample. Based on apparent abundance, metabolites were categorized as ‘major’ if present at 10% or more of the total drug-related material, ‘minor’ if between 1 and <10% and ‘trace’ if <1%.

[2] = tested on: SD-rat, beagle dog and human hepatocytes; test: Hepatocyte incubation, remaining abundance in all species; format: in vitro ADME; conditions: 10 μM
Protocol: as §1

human hepatocytes = test: Metabolite profile in cryopreserved human hepatocytes; format: in vitro ADME; conditions: 10 μM Compound 1, 120 min
Protocol: as §1

[3] = Metabolite identification in cross-subject human plasma pool; format: in vivo; conditions: day 7, 0-24 h pool, multiple daily oral 15 mg Compound 1, n=8
Protocol: The in vivo metabolism of Compound 1 was investigated in studies using rat, dog, rabbit, and human plasma and human urine samples from toxicology studies, an embryofetal development study, and a human clinical study.
Human plasma and urine samples originated from a human clinical study with subjects aged 65 years or older, dosed with 15 mg daily and achieving steady-state before day 7. Samples were stored at −75° C. or below from collection until analysis.
Human plasma samples from each Compound 1-dosed subject (15 mg; n=8) collected at day 7 at 0.25 h, 0.5 h, 1 h, 1.5 h, 2 h, 3 h, 4 h, 6 h, 8 h, 10 h, 12 h and 24 h after multiple daily oral administration were pooled for analysis. Plasma from placebo-dosed subjects (n=2) taken at the same time-points and pre-dose plasma collected on day 1 from Compound 1-dosed subjects were used as control for metabolite identification.
Time-normalized pooled plasma samples (day 7; 0-24 h) were prepared for each human subject treated with Compound 1 (15 mg; n=8) or with placebo (n=2) (see e.g., Hamilton et al, Clin. Pharmacol. Ther. 1983, 29(3):408-13). Composite time-normalized pooled plasma samples for human subjects dosed with Compound 1 or placebo were then prepared by combining an equal volume from the pooled sample prepared for each subject. A composite control plasma sample was prepared by combining an equal volume of pre-dose plasma from human subjects treated with Compound 1 (n=8).
Aliquots (100 μL) of the pooled plasma samples prepared for metabolite identification were treated with ice-cold acetonitrile (500 μL), mixed and centrifuged (2000 g; 4° C.; 10 min). […]
Samples were analysed by LC-MS, utilising a Vion Q-TOF mass spectrometer (Waters), Acquity I-class LC pumps, column heater, sample manager and photodiode array detector (Waters). […] Metabolite abundance was calculated as a percentage of total drug-related material in a given sample; the MS peak areas were collated and summed, and the abundance of each metabolite calculated as a percentage of the total in each sample. […]

[4] = Control incubation without cells; format: in vitro ADME
Protocol: as §1

SD-rat hepatocytes = test: Metabolite profile in cryopreserved SD-rat hepatocytes; format: in vitro ADME; conditions: 10 μM Compound 1, 120 min
Protocol: as §1

% Abundance in Sample, Urine (% of total drug-related material) [1]	Metabolite profile, Human 120 min, % (human hepatocytes)	% Abundance in Sample, Plasma (% of total drug-related material) [3]	Metabolite profile, Rat 120 min, % (SD-rat hepatocytes)	Structure (SMILES)	Metabolite profile, Dog 120 min, % (beagle dog hepatocytes)	remaining abundances after 120 min incubation period [2]	Metabolite profile, No cells 120 min, % ([4]; incubation without cells, 10 μM, 120 min)	disappearance in the control incubation without cells ([4]; without cells)
26.4%	13.8%	11.4%	4.9%	Cn1nccc1C1CCN([C@H]2C[C@]3(CCNC3)C2)CC1 [Compound M4]	4.6%	–	–	–
3.3%	0.3%	2.3%	0.1%	CCOC(=O)N1CC[C@]2(C1)C[C@@H](N1CCC(c3ccn[nH]3)CC1)C2 [Compound M2]	–	–	–	–

Structure (SMILES)	% Abundance in Sample, Urine (% of total drug-related material) [1]	Metabolite profile, Human 120 min, % (human hepatocytes)	% Abundance in Sample, Plasma (% of total drug-related material) [3]	Metabolite profile, Rat 120 min, % (SD-rat hepatocytes)	Metabolite profile, Dog 120 min, % (beagle dog hepatocytes)	remaining abundances after 120 min incubation period [2]	Metabolite profile, No cells 120 min, % ([4]; incubation without cells, 10 μM, 120 min)	disappearance in the control incubation without cells ([4]; without cells)
CCOC(=O)N1CC[C@]2(C1)C[C@@H](N1CCC(c3ccnn3C)CC1)C2 [Compound 1, cis ethyl 2-[4-(1-methyl-1H-pyrazol-5-yl)piperidin-1-yl]-6-azaspiro[3.4]octane-6-carboxylate]	63.3%	84.0%	82.0%	93.7%	94.9%	79-93%	100%	Practically no disappearance
